Results published in ChEMBL document CHEMBL1201862, “PubChem BioAssay data set” (2004).
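Results reflect a 48-hour exposure of cells in 96-well plates to compound at five concentrations. The concentration for 50% growth inhibition is given as GI50.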 Active and inactive are the calls of the source. Cut-off read from the data, not from the text of the source: active = GI50 up to about 1.1 µM and inactive = higher.

How the values were obtained:
Experiment in all cases: DTP human tumour cell line panel, 48 h
NCI-H460 = test system: NCI-H460
A498 = test system: A498
SK-MEL-5 = test system: SK-MEL-5
TK-10 = test system: TK-10
MOLT-4 = test system: MOLT-4
OVCAR-4 = test system: OVCAR-4
SF-539 = test system: SF-539
SK-MEL-2 = test system: SK-MEL-2
SNB-75 = test system: SNB-75
HCC 2998 = test system: HCC 2998
LOX IMVI = test system: LOX IMVI
HOP-18 = test system: HOP-18
SF-295 = test system: SF-295
NCI-H23 = test system: NCI-H23
HCT-15 = test system: HCT-15
HT-29 = test system: HT-29
SNB-19 = test system: SNB-19
SK-OV-3 = test system: SK-OV-3
LXFL 529 = test system: LXFL 529
K562 = test system: K562
RXF 393 = test system: RXF 393
RPMI-8226 = test system: RPMI-8226
IGROV-1 = test system: IGROV-1
SW-620 = test system: SW-620
CCRF-CEM = test system: CCRF-CEM
KM-20L2 = test system: KM-20L2
Malme-3M = test system: Malme-3M
UACC-62 = test system: UACC-62
CAKI-1 = test system: CAKI-1
NCI-H226 = test system: NCI-H226
KM12 = test system: KM12
SK-MEL-28 = test system: SK-MEL-28
SF-268 = test system: SF-268
U-251 = test system: U-251
M14 = test system: M14
OVCAR-5 = test system: OVCAR-5
XF498 = test system: XF498
COLO 205 = test system: COLO 205
A549 = test system: A549
DMS-273 = test system: DMS-273
HCT-116 = test system: HCT-116
HOP-92 = test system: HOP-92
ACHN = test system: ACHN
OVCAR-3 = test system: OVCAR-3
OVCAR-8 = test system: OVCAR-8
EKVX = test system: EKVX
HL-60 = test system: HL-60
786-0 = test system: 786-0
SN12C = test system: SN12C
HOP-62 = test system: HOP-62
M19-MEL = test system: M19-MEL
DLD-1 = test system: DLD-1
NCI-H522 = test system: NCI-H522

## O=S(=O)(CC1=NC2C=CC=CC2N=C1)NCc1ccccc1 (stereo not drawn)
NCI-H460
  GI50: > 100 µM (inactive)
A498
  GI50: > 100 µM (inactive)
SK-MEL-5
  GI50: 40 µM (inactive)
TK-10
  GI50: > 100 µM (inactive)
MOLT-4
  GI50: 69.5 µM (inactive)
OVCAR-4
  GI50: 55.2 µM (inactive)
SF-539
  GI50: > 100 µM (inactive)
SK-MEL-2
  GI50: > 100 µM (inactive)
SNB-75
  GI50: > 100 µM (inactive)
HCC 2998
  GI50: 0.0156 µM (active)
LOX IMVI
  GI50: > 100 µM (inactive)
HOP-18
  GI50: > 100 µM (inactive)
SF-295
  GI50: > 100 µM (inactive)
NCI-H23
  GI50: > 100 µM (inactive)
HCT-15
  GI50: 81.7 µM
HT-29
  GI50: > 100 µM (inactive)
SNB-19
  GI50: > 100 µM (inactive)
SK-OV-3
  GI50: > 100 µM (inactive)
LXFL 529
  GI50: > 100 µM (inactive)
K562
  GI50: > 100 µM (inactive)
RXF 393
  GI50: 12.9 µM (inactive)
RPMI-8226
  GI50: > 100 µM (inactive)
IGROV-1
  GI50: > 100 µM (inactive)
SW-620
  GI50: > 100 µM (inactive)
CCRF-CEM
  GI50: > 100 µM (inactive)
KM-20L2
  GI50: > 100 µM (inactive)
Malme-3M
  GI50: > 100 µM (inactive)
UACC-62
  GI50: > 100 µM (inactive)
CAKI-1
  GI50: > 100 µM (inactive)
NCI-H226
  GI50: 78.7 µM (inactive)
KM12
  GI50: > 100 µM (inactive)
SK-MEL-28
  GI50: > 100 µM (inactive)
SF-268
  GI50: > 100 µM (inactive)
U-251
  GI50: > 100 µM (inactive)
M14
  GI50: > 100 µM (inactive)
OVCAR-5
  GI50: > 100 µM (inactive)
XF498
  GI50: 24.3 µM (inactive)
COLO 205
  GI50: > 100 µM (inactive)
A549
  GI50: > 100 µM (inactive)
DMS-273
  GI50: > 100 µM (inactive)
HCT-116
  GI50: > 100 µM (inactive)
HOP-92
  GI50: 75.3 µM (inactive)
ACHN
  GI50: > 100 µM (inactive)
OVCAR-3
  GI50: 83.2 µM (inactive)
OVCAR-8
  GI50: > 100 µM (inactive)
EKVX
  GI50: > 100 µM (inactive)
HL-60
  GI50: 69.5 µM (inactive)
786-0
  GI50: > 100 µM (inactive)
SN12C
  GI50: > 100 µM (inactive)
HOP-62
  GI50: > 100 µM (inactive)
M19-MEL
  GI50: > 100 µM (inactive)
DLD-1
  GI50: > 100 µM (inactive)
NCI-H522
  GI50: 76.2 µM (inactive)
